Measurements from patent US20030190378A1, “Extract of processed Panax genus plant, the preparation method thereof, and compositions containing the same” (priority 2002, published 2003).

Key:
RBL-2H3 cell line = assay: Anti-allergic effect using IgE-sensitized, DNP-BSA-activated RBL-2H3 cell line (p-NAG substrate readout); type: cell-based, rat; conditions: for Anti-allergic effect in RBL cell IC50 / IC50: Table 4, saponin fractions and isolated saponins; for anti-allergic effect in words, allergy inhibition test using RBL-2H3 cell line: Tables 3 and 4; for IC50: Rattus norvegicus
Procedure: In order to confirm the anti-allergic effect of the extracts in the present invention, the experiment was performed by the procedure described in the literature (Inagaki. et al., Int, Arch. Allergy Appl. Immunol., 87, pp254-259, 1988).
RBL-2H3 cell line (rat basophil cell line, Korean Cell Line Bank, Cat. No.22256) were incubated with DMEM (Dulbecco's modified Eagle's) medium (Sigma No. D-5648, USA) containing 10% FBS (Fetal Bovine Serum), L-glutamine for 2 hours at 37° C. by using humidified 5% CO2 incubator and attached cells were floated by trypsin-EDTA solution, separated and recovered to use in further experiment. Each RBL-2H3 cells were transferred to 24 well plate to be adjusted to 5×10^5 cells/well, treated with 0.5 μg of mouse monoclonal IgE and incubated for 12 hours to be sensitization. The cell was washed with 0.5 ml of siraganian buffer solution (pH 7.2) composed of 119 mM NaCl, 5 mM KCl, 0.4 mM MgCl2, 25 mM PIPES and 40 mM NaOH. 0.16 ml of siraganian buffer solution containing 5.5 mM glucose, 1 mM CaCl2 and 0.1% BSA, was added thereto again and incubated for 10 minutes at 37° C. Thereafter, 40 μl of test sample solution containing the extract in the Comparative Example 1, 2, 3 and Example 1, 2, 3 were added thereto. After 20 minutes, the cells were activated by adding 0.02 ml of antigen, 1 μg/ml of DNP-BSA, for 10 minutes at 37° C., centrifuged at the speed of 2000 rpm for 10 minutes and 0.025 ml of the supernatant was transferred to 96 well plate. 0.025 ml of 1 mM p-NAG substrate solution prepared by dissolving p-nitrophenyl-N-acetyl-β-D-glucosaminide with 0.1M citrate buffer solution adjusted to pH 4.5, was added thereto, incubated for 60 minutes at 37° C. and 0.2 ml of 0.1M Na2CO3/NaHCO3 was added thereto to quench the reaction to measure their optical density at 405 nm by ELISA analyzer.

ICR mouse = assay: Passive cutaneous anaphylaxis test (Evans blue leakage); type: in vivo; conditions: for anti-allergic effect in words, passive cutaneous anaphylaxis: Tables 5 and 6
Procedure: 50 μl of diluted solution with physiological saline containing 10 μg of mouse IgE serum against dinitrophenol-human serum album (DNP-HSA, Sigma, USA), was injected to the back of ICR mouse (Dae Han Co., Ltd) anesthetized with ether to be passive sensitization. After 48 hours, 0.2 ml of physiological saline solution containing 0.2 mg of DNP-HSA and 1.6 mg of Evans blue was injected to the mouse's tail vein and the mouse was sacrificed by cervical dislocation to death and then the amount of Evans blue dye leaked to mouse's back was measured as follows. Certain circular area of mouse's back distant from the area where IGE injected about 1 cm^2 far, was cut and put into a test tube. 4 ml of mixture solution of 0.6M phosphoric acid and acetone with a ratio of 5:13 was added to the tube, stirred and filtered. The amount of dye was measured by colorimetric analysis at 620 nm.

Row | Molecule | Anti-allergic effect in RBL cell IC50 (RBL-2H3 cell line) [µg/mL] | Passive cutaneous anaphylaxis Inhibitory rate (%) Abdominal administration (ICR mouse; Table 6, 25 mg/kg abdominal) [%] | further results
1 | CC(C)=CCC[C@](C)(O)[C@H]1CC[C@]2(C)[C@@H]1[C@H](O)C[C@@H]1[C@@]3(C)CC[C@H](O)C(C)(C)[C@@H]3CC[C@]12C [20(S)-protopanaxadiol] | >0.2 |  | 
2 | CC(C)=CCC[C@](C)(O[C@@H]1O[C@H](CO)[C@@H](O)[C@H](O)[C@H]1O)[C@H]1CC[C@]2(C)[C@@H]1[C@H](O)C[C@@H]1[C@@]3(C)CC[C@H](O)C(C)(C)[C@@H]3[C@@H](O[C@@H]3O[C@H](CO)[C@@H](O)[C@H](O)[C@H]3O)C[C@]12C [Ginsenoside Rg1] | 0.08 | 37 | 
3 | O=C([O-])c1cc(=O)c2c(OCC(O)COc3cccc4oc(C(=O)[O-])cc(=O)c34)cccc2o1.[Na+].[Na+] [DSCG, Disodium Cromoglycate, reference compound] | 0.498 |  | Passive cutaneous anaphylaxis Inhibitory rate (%) (ICR mouse; Table 5, 100 mg/kg): 37%; Passive cutaneous anaphylaxis Inhibitory rate (%) Oral administration (ICR mouse; Table 6, 100 mg/kg oral): 37%
4 | CC(C)=CCC[C@](C)(O)[C@H]1CC[C@]2(C)[C@@H]1[C@H](O)C[C@@H]1[C@@]3(C)CC[C@H](O[C@@H]4O[C@H](CO)[C@@H](O)[C@H](O)[C@H]4O)C(C)(C)[C@@H]3CC[C@]12C [20(S)-ginsenoside Rh2] | 0.03 |  | 
5 | CC(C)=CC/C=C(\C)[C@H]1CC[C@]2(C)[C@@H]1[C@H](O)C[C@@H]1[C@@]3(C)CC[C@H](O[C@@H]4O[C@H](CO)[C@@H](O)[C@H](O)[C@H]4O[C@@H]4O[C@H](CO)[C@@H](O)[C@H](O)[C@H]4O)C(C)(C)[C@@H]3CC[C@]12C [Gginsenoside Rg5, ginsenoside Rg5] |  | 45 | 
6 | CC(C)=CCC=C(C)[C@H]1CC[C@]2(C)[C@@H]1[C@H](O)C[C@@H]1[C@@]3(C)CC[C@H](O)C(C)(C)[C@@H]3[C@@H](O[C@@H]3O[C@H](CO)[C@@H](O)[C@H](O)[C@H]3O[C@@H]3O[C@@H](C)[C@H](O)[C@@H](O)[C@H]3O)C[C@]12C (stereo in doubt) [Ginsenoside F4] |  | 63 | 
7 | CC(C)=CCC[C@](C)(O)[C@H]1CC[C@]2(C)[C@@H]1[C@H](O)C[C@@H]1[C@@]3(C)CC[C@H](O[C@@H]4O[C@H](CO)[C@@H](O)[C@H](O)[C@H]4O)C(C)(C)[C@@H]3CC[C@]12C [Ginsenoside Rh2] |  | 88 | Passive cutaneous anaphylaxis Inhibitory rate (%) Oral administration (ICR mouse; Table 6, 25 mg/kg oral): 36%; anti-allergic effect in words, passive cutaneous anaphylaxis (ICR mouse): more potent inhibitory effects than that of DSCG; anti-allergic effect in words, allergy inhibition test using RBL-2H3 cell line (RBL-2H3 cell line): more potent inhibition effect than that of DSCG
8 | CC(C)=CCC[C@@](C)(O)[C@H]1CC[C@]2(C)[C@@H]1[C@H](O)C[C@@H]1[C@@]3(C)CC[C@H](O)C(C)(C)[C@@H]3CC[C@]12C [20(R)-protopanaxadiol] | >0.2 |  | 
9 | CC(C)=CCC[C@](C)(O[C@@H]1O[C@H](CO[C@@H]2O[C@H](CO)[C@@H](O)[C@H](O)[C@H]2O)[C@@H](O)[C@H](O)[C@H]1O)[C@H]1CC[C@]2(C)[C@@H]1[C@H](O)C[C@@H]1[C@@]3(C)CC[C@H](O[C@@H]4O[C@H](CO)[C@@H](O)[C@H](O)[C@H]4O[C@@H]4O[C@H](CO)[C@@H](O)[C@H](O)[C@H]4O)C(C)(C)[C@@H]3CC[C@]12C [Ginsenoside Rb1] | >0.2 |  | Passive cutaneous anaphylaxis Inhibitory rate (%) Abdominal administration (ICR mouse; Table 6, 50 mg/kg abdominal): 17%
10 | CC(C)=CCC[C@](C)(O[C@@H]1O[C@H](CO[C@@H]2OC[C@H](O)[C@H](O)[C@H]2O)[C@@H](O)[C@H](O)[C@H]1O)[C@H]1CC[C@]2(C)[C@@H]1[C@H](O)C[C@@H]1[C@@]3(C)CC[C@H](O[C@@H]4O[C@H](CO)[C@@H](O)[C@H](O)[C@H]4O[C@@H]4O[C@H](CO)[C@@H](O)[C@H](O)[C@H]4O)C(C)(C)[C@@H]3CC[C@]12C [Ginsenoside Rb2] | >0.2 | 12 | 
11 | CC(C)=CCC[C@](C)(O)[C@H]1CC[C@]2(C)[C@@H]1[C@H](O)C[C@@H]1[C@@]3(C)CC[C@H](O)C(C)(C)[C@@H]3[C@@H](O[C@@H]3O[C@H](CO)[C@@H](O)[C@H](O)[C@H]3O[C@@H]3O[C@H](CO)[C@@H](O)[C@H](O)[C@H]3O)C[C@]12C [Ginsenoside Rf] |  | 40 | IC50 (RBL-2H3 cell line): 0.11 µg/mL
12 | CC(C)=CCC[C@](C)(O)[C@H]1CC[C@]2(C)[C@@H]1[C@H](O)C[C@@H]1[C@@]3(C)CC[C@H](O[C@@H]4O[C@H](CO)[C@@H](O)[C@H](O)[C@H]4O[C@@H]4O[C@H](CO)[C@@H](O)[C@H](O)[C@H]4O)C(C)(C)[C@@H]3CC[C@]12C [Ginsenoside Rg3] |  |  | Passive cutaneous anaphylaxis Inhibitory rate (%) Abdominal administration (ICR mouse; Table 6, abdominal, dosage cell empty): 47%; Passive cutaneous anaphylaxis Inhibitory rate (%) Oral administration (ICR mouse; Table 6, oral, dosage cell empty): 38%
13 | Δ^20-ginsenoside Rg3 | 0.09 |  | 
14 | CC(C)=CCC[C@](C)(O)[C@H]1CC[C@]2(C)[C@@H]1[C@H](O)C[C@@H]1[C@@]3(C)CC[C@H](O)C(C)(C)[C@@H]3[C@@H](O[C@@H]3O[C@H](CO)[C@@H](O)[C@H](O)[C@H]3O)C[C@]12C [Ginsenoside Rh1] | 0.02 | 87 | Passive cutaneous anaphylaxis Inhibitory rate (%) Oral administration (ICR mouse; Table 6, 25 mg/kg oral): 79%; anti-allergic effect in words, passive cutaneous anaphylaxis (ICR mouse): more potent inhibitory effects than that of DSCG; anti-allergic effect in words, allergy inhibition test using RBL-2H3 cell line (RBL-2H3 cell line): more potent inhibition effect than that of DSCG
15 | CC(C)=CCC[C@](C)(O)[C@H]1CC[C@]2(C)[C@@H]1[C@H](O)C[C@@H]1[C@@]3(C)CC[C@H](O[C@@H]4O[C@H](CO)[C@@H](O)[C@H](O)[C@H]4O[C@@H]4O[C@H](CO)[C@@H](O)[C@H](O)[C@H]4O)C(C)(C)[C@@H]3CC[C@]12C [20(S)-ginsenoside Rg3] | >0.2 |  | 
16 | CC(C)=CCC[C@](C)(O[C@@H]1O[C@H](CO)[C@@H](O)[C@H](O)[C@H]1O)[C@H]1CC[C@]2(C)[C@@H]1[C@H](O)C[C@@H]1[C@@]3(C)CC[C@H](O)C(C)(C)[C@@H]3[C@@H](O[C@@H]3O[C@H](CO)[C@@H](O)[C@H](O)[C@H]3O[C@@H]3O[C@@H](C)[C@H](O)[C@@H](O)[C@H]3O)C[C@]12C [Ginsenoside Re] |  | 15 | IC50 (RBL-2H3 cell line): 0.06 µg/mL
17 | CC(C)=CCC[C@](C)(O[C@@H]1O[C@H](CO)[C@@H](O)[C@H](O)[C@H]1O)[C@H]1CC[C@]2(C)[C@@H]1[C@H](O)C[C@@H]1[C@@]3(C)CC[C@H](O)C(C)(C)[C@@H]3[C@@H](O)C[C@]12C [Ginsenoside F1] | 0.13 | 69 | anti-allergic effect in words, passive cutaneous anaphylaxis (ICR mouse): more potent inhibitory effects than that of DSCG; anti-allergic effect in words, allergy inhibition test using RBL-2H3 cell line (RBL-2H3 cell line): more potent inhibition effect than that of DSCG
18 | CC(C)=CCC[C@@](C)(O)[C@H]1CC[C@]2(C)[C@@H]1[C@H](O)C[C@@H]1[C@@]3(C)CC[C@H](O)C(C)(C)[C@@H]3CC[C@]12C [protopanaxadiol] |  | 25 | 
19 | CC(C)=CCC[C@@](C)(O)[C@H]1CC[C@]2(C)[C@@H]1[C@H](O)C[C@@H]1[C@@]3(C)CC[C@H](O[C@@H]4O[C@H](CO)[C@@H](O)[C@H](O)[C@H]4O)C(C)(C)[C@@H]3CC[C@]12C [20(R)-ginsenoside Rh2] | >0.2 |  | 
